# From US9139523B2, “5-HT2B receptor antagonists” (Janssen Pharmaceutica, NV, priority 2010, dated 2015)
# Assays:
# [1] = Pharmacokinetic evaluation in the mouse; type: in vivo; settings: male CD1 mouse
# Protocol: For intravenous (i.v.) administration, Compound (−)-17 was dissolved in saline containing 20% (w/v) hydroxy-propyl-beta-cyclodextrin (HPbCD) at a concentration of 0.25 mg/mL and administered (10 mL/kg) to male CD1 mice (n=3) as a bolus via a tail vein at a dose level of 2.5 mg/kg. For oral (p.o.) administration, Compound (−)-17 was dissolved in water containing 20% (w/v) HPbCD at a concentration of 0.5 mg/mL and administered (20 mL/kg) to male CD1 mice (n=3) via gavage at a dose level of 10 mg/kg. Blood samples were collected via a saphenous vein at serial time points up to 24 h after dosing. Plasma was obtained by centrifugation and stored at −20° C. prior to analysis. Analysis was performed using liquid chromatography (LC) with tandem mass spectrometric detection (MS/MS) in positive ion mode. Compound (−)-17 was eluted from a reversed phase column with a gradient of acetonitrile and water containing 0.1% (v/v) formic acid. At the time of analysis plasma samples (20 uL) were thawed and […] with 200 uL of acetonitrile and centrifuged. Aliquots of the supernatant were injected onto a reversed phase UPLC column and analysed via electrospray Mass Spectrometry. Calibration standards and quality controls, analysed before and after the study samples, were prepared in mouse plasma at the same time as […]. The accuracy (intra branch accuracy from independent QC samples) was between 85% and 115% of the nominal value over the entire concentration range. Non-compartmental pharmacokinetic analysis of the plasma concentration-time curves was performed using WinNonLin to provide estimates of the plasma clearance (CLp), volume of distribution at steady-state (Vss), terminal phase elimination half-life ([…]) and oral bioavailability (F), the results are summarised in Table 8.
# [2] = Cardio-hemodynamic, cardio-electrophysiological, EEG and pulmonary effects in ventilated, anesthetized dogs; type: in vivo, dog; settings: Beagle, plasma, iv, dog, 5-min i.v. infusion
# Protocol: The animals were anesthetized with a mixture of 0.015 mg/kg i.v. scopolamine and 0.075 mg/kg i.v. lofentanil, and relaxed with succinylcholine (5 mg/kg i.v.) followed by a continuous i.v. infusion of 1.5 mg/kg/h of etomidate and small additional doses of fentanyl (0.025 mg/kg i.v.) were given at 60 min intervals. The animals were ventilated and prepared for measurements of the surface ECG, aortic-, pulmonary- and left ventricular blood pressure, carotid blood flow, monophasic action potential, body temperature, blood gasses and EEG (see Van Deuren et al, J Pharmacol Toxicol Methods; 2009; 60: 11-23). Compound (−)-17 was dissolved in 20% hydroxypropyl-cyclodextrin with NaOH, HCl and mannitol in pyrogen-free water and administered intravenously (1 ml/kg) in increasing doses (0.16, 0.32, 0.63, 1.25, 2.5 and 5 mg/kg) over a period of 5 min at 30-min intervals. Plasma concentrations of Compound (−)-17 were measured before and at the end of each infusion. Corresponding volumes of vehicle were administered according to the same protocol in a second group of animals.
smiles,measurement,setting,value
"COc1cc(N)c(Cl)cc1C(=O)NC1CCN(CCCOc2ccc(F)cc2)CC1(F)F (single isomer, unassigned) [Compound (−)-17, 4-amino-5-chloro-N-{3,3-difluoro-1-[3-(4-fluorophenoxy)-propyl]-piperidin-4-yl}-2-methoxybenzamide]",F,[1]; p.o. 10 mg/kg vs i.v. 2.5 mg/kg,52%
same,half-life,"[1]; plasma, intravenous, 2.5 mg/kg, read-out: t½ (converted)",84 ± 12 min
same,clearance,"[1]; plasma, iv, i.v. 2.5 mg/kg",20 ± 6 mL/min/kg
same,Vd,"[1]; plasma, iv, i.v. 2.5 mg/kg, read-out: Vss",1.9 ± 0.6 L/kg
same,AUC(0-t),"[1]; plasma, po, p.o. 10 mg/kg",4440 ± 1090 ng·h/mL
same,Cmax,"[1]; plasma, po, p.o. 10 mg/kg",1580 ± 165 ng/mL
same,Tmax,"[1]; plasma, po, p.o. 10 mg/kg",30 min
same,Cmax,"[2]; dose 1.25 mg/kg (increasing doses, 30-min intervals), read-out: Median plasma level (Cmax)",5200 ng/mL
same,Cmax,"[2]; dose 2.5 mg/kg (increasing doses, 30-min intervals), read-out: Median plasma level (Cmax)",9550 ng/mL
same,Cmax,"[2]; dose 5 mg/kg (increasing doses, 30-min intervals; total dose 9.86 mg/kg), read-out: Median plasma level (median Cmax)",20400 ng/mL
